From ChEMBL document CHEMBL3045628, “Quantitative structureactivity relationships studies for prediction of antimicrobial activity of synthesized disulfonamide derivatives” (2011)

Tests used:
Format in all cases: functional
Bacillus cereus = assay: Antimicrobial activity against Bacillus cereus RSKK 863 after 24 hr by broth microdilution assay
Escherichia coli = assay: Antimicrobial activity against Escherichia coli ATCC 11230 after 24 hr by broth microdilution assay
Staphylococcus aureus = assay: Antimicrobial activity against Staphylococcus aureus ATCC 25923 after 24 hr by broth microdilution assay

Structure (SMILES) | -logMIC (Bacillus cereus) | -logMIC (Escherichia coli) | -logMIC (Staphylococcus aureus)
Cc1cccc(S(=O)(=O)NCCNS(=O)(=O)c2cccc(C)c2)c1 | 3.48 | 3.58 | 3.522
O=S(=O)(NCCCCCNS(=O)(=O)c1ccccc1)c1ccccc1 | 3.2 | 3.496 | 3.38
O=S(=O)(NCCNS(=O)(=O)c1ccccc1)c1ccccc1 | 3.37 | 3.51 | 3.38
Cc1ccc(S(=O)(=O)NCCCNS(=O)(=O)c2ccc(C)cc2)cc1 | 3.38 | 3.52 | 3.3
Cc1ccc(S(=O)(=O)NCCNS(=O)(=O)c2ccc(C)cc2)cc1 | 3.4 | 3.53 | 3.4
COc1ccccc1S(=O)(=O)NCCCNS(=O)(=O)c1ccccc1OC | 3.6 | 3.711 | 3.55
O=S(=O)(NCCCNS(=O)(=O)c1ccccc1)c1ccccc1 | 3.36 | 3.49 | 3.285
O=S(=O)(NCCCCNS(=O)(=O)c1ccccc1)c1ccccc1 | 3.358 | 3.48 | 3.24
Cc1ccc(S(=O)(=O)NCCCCNS(=O)(=O)c2ccc(C)cc2)cc1 | 3.35 | 3.5 | 3.26
Cc1ccccc1S(=O)(=O)NCCNS(=O)(=O)c1ccccc1C | 3.56 | 3.7 | 3.638
Cc1ccccc1S(=O)(=O)NCCCNS(=O)(=O)c1ccccc1C | 3.542 | 3.68 | 3.6
Cc1ccccc1S(=O)(=O)NCCCCNS(=O)(=O)c1ccccc1C | 3.505 | 3.64 | 3.54
Cc1cccc(S(=O)(=O)NCCCNS(=O)(=O)c2cccc(C)c2)c1 | 3.44 | 3.57 | 3.48
Cc1cccc(S(=O)(=O)NCCCCNS(=O)(=O)c2cccc(C)c2)c1 | 3.41 | 3.55 | 3.47
COc1ccc(S(=O)(=O)NCCNS(=O)(=O)c2ccc(OC)cc2)cc1 | 3.46 | 3.56 | 3.49
CS(=O)(=O)NCCNS(C)(=O)=O | 2.876 | 2.99 | 2.99
CS(=O)(=O)NCCCNS(C)(=O)=O | 2.864 | 2.97 | 2.925

Structure (SMILES) | -logMIC (Bacillus cereus) | -logMIC (Escherichia coli) | -logMIC (Staphylococcus aureus)
CS(=O)(=O)NCCCCNS(C)(=O)=O | 2.84 | 2.95 | 2.9
CS(=O)(=O)NCCCCCNS(C)(=O)=O | 2.828 | 2.94 | 2.88
CCS(=O)(=O)NCCNS(=O)(=O)CC | 2.66 | 2.72 | 2.66
CCS(=O)(=O)NCCCNS(=O)(=O)CC | 2.642 | 2.7 | 2.642
CCS(=O)(=O)NCCCCNS(=O)(=O)CC | 2.638 | 2.69 | 2.637
CCS(=O)(=O)NCCCCCNS(=O)(=O)CC | 2.58 | 2.67 | 2.61
COc1ccc(S(=O)(=O)NCCCNS(=O)(=O)c2ccc(OC)cc2)cc1 | 3.42 | 3.511 | 3.46
CCCS(=O)(=O)NCCCCCNS(=O)(=O)CCC | 2.78 | 3.191 | 2.96
COc1cccc(S(=O)(=O)NCCNS(=O)(=O)c2cccc(OC)c2)c1 | 3.58 | 3.6 | 3.52
COc1cccc(S(=O)(=O)NCCCNS(=O)(=O)c2cccc(OC)c2)c1 | 3.55 | 3.59 | 3.5
COc1ccccc1S(=O)(=O)NCCNS(=O)(=O)c1ccccc1OC | 3.66 | 3.72 | 3.58
CCCS(=O)(=O)NCCCNS(=O)(=O)CCC | 3.058 | 3.104 | 3.009
CCCS(=O)(=O)NCCCCNS(=O)(=O)CCC | 2.95 | 3.119 | 2.933
CCCCS(=O)(=O)NCCNS(=O)(=O)CCCC | 2.83 | 3.12 | 2.974
CCCCS(=O)(=O)NCCCNS(=O)(=O)CCCC | 2.917 | 3.116 | 2.861
CCCCS(=O)(=O)NCCCCNS(=O)(=O)CCCC | 2.85 | 2.857 | 2.829
CCCS(=O)(=O)NCCNS(=O)(=O)CCC | 3.179 | 3.258 | 3.003
